According to patent US7022699B2, “Cyclohexenyl phenyl diazepines vasopressin and oxytocin receptor modulators” (Wyeth, priority 2001, dated 2006):

Tests used:
[1] = target: T1, human vasopressin V2 receptor subtype (Homo sapiens, UniProt P30518); experiment: Vasopressin binding in CHO cell membranes expressing human vasopressin V2 subtype receptors ([3H]arginine vasopressin); details: 100 nM, values without parentheses
T1 construct: host or cells: CHO cells, stably transfected (pZeoSV vector); membranes
T1 sequence (P30518 whole entry): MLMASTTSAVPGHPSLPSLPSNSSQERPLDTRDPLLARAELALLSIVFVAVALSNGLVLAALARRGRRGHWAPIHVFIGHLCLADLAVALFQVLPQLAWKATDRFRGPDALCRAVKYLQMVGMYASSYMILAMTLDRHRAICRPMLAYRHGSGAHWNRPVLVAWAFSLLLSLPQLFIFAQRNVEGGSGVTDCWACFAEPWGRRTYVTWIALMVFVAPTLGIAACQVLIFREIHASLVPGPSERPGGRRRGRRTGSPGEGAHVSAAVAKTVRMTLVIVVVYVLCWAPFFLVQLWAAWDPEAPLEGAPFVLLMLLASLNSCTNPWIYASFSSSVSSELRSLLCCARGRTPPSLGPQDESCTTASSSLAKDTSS
Source text: Vasopressin Binding in Chinese Hamster Ovary Cell Membranes Expressing Human Vasopressin V2 Subtype Receptors
Chinese Hamster Ovary (CHO) cells stably transfected with the human V2 subtype receptors were obtained from M. Thibonnier, Case Western Reserve University School of Medicine, Cleveland, Ohio.
A. Passaging and Amplification of Cells:
CHO cells transfected with the human vasopressin V2 subtype receptors obtained from M. Thibonnier (pZeoSV vector) are allowed to grow to confluency (approx. >90%) in T-150 flasks under sterile conditions, in a cell culture medium of F-12 Nutrient Mixture (HAM) with L-glutamine (Gibco Cat. #11765-054) containing 15 mM HEPES (Gibco Cat. #15630-080), 1% antibiotic/antimycotic (add 5 mL 100×, Gibco Cat. #15240-062 per 500 mL F-12), 250 μg/mL Zeocin (add 1.25 mL of 100 mg/mL Invitrogen R-250-01 per 500 mL F-12) and 10% Fetal Bovine Serum (Qualified, heat inactivated, Gibco Cat. #16140-063). The medium is removed by aspiration and the cells washed with 10 mL of Hank's Balanced Salt solution (Gibco Cat. #14175-095). The salt solution is removed by aspiration and the cells trypsinized with 5 mL of trypsin-EDTA (0.05% trypsin, 0.53 mM EDTA-4Na, Gibco Cat. #25300-070) for 1 min. The trypsin is removed by aspiration and the cells dislodged by tapping. Cell Culture medium (e.g. 30 mL for 1:30 split) is immediately added and mixed well to inactivate trypsin. 1 mL of detached cells is added to new culture flasks containing fresh Cell Culture medium (e.g. into 25 mL per T-150 flask), and mixed gently. The cells are incubated at 37° C. in 5% CO2. The medium is changed at 3 to 4 day interval (or as appropriate). The cells grow to confluency (approx. >75%–95%) within 7–8 days. All steps are done under sterile conditions. B. Membrane Preparation: The cells are washed twice gently with Hank's Balanced Salt solution (e.g. use 10 mL per T-150 flask). The excess solution is removed and the cells bathed for 15–30 min. in an enzyme-free Cell Dissociation Buffer (e.g. use 8 mL Hank's Based, Gibco Cat. # 13150-016 per T-150 flask) until cells are loosened. The contents are transferred to centrifuge tubes (50 mL size) kept in ice bath. All subsequent steps are done at 4° C. The tubes are centrifuged at 300×g for 15 min (1380 rpm on SORVAL, Model RT6000D, using rotor for 50 mL tubes). The supernatant is discarded and the cells suspended in homogeneizing buffer (10 mM Tris-HCl containing 0.25 M sucrose and 1 mM EDTA, pH 7.4) ensuring that the volume of the buffer is about ten times the volume of the cell pellet. The cells are pooled into a centrifuge tube (50 mL) and homogenized with Polytron at setting 6 for 10 sec. The homogenate is transferred into a Potter-Elvjehm homogeneizer and homogenized with 3 strokes. The homogenate is centrifuged at 1500×g for 60 min at 4° C. (3100 rpm using SORVAL, model RT6000D, using rotor for 50 mL tubes). The pellet is discarded. The supernatant is centrifuged at 100,000×g for 60 min. at 4° C. (Beckman L8-80M ultracentrifuge; spin at 37,500 rpm with rotor type 70 Ti for 50 mL tubes; 38,000 rpm with type 80Ti for 15 mL tubes; or 35,800 rpm with rotor type 45Ti). The supernantant is discarded and the pellet suspended in 3 to 4 mL of Tris buffer (50 mM TRIS-HCl, pH 7.4). The protein content is estimated by the Bradford or Lowry method. The volume of the membrane suspension is adjusted with the membrane buffer (50 mM Tris-HCl containing 0.1% BSA and 0.1 mM PMSF) to give 3.0 mg/mL (or as appropriate) of protein. The membranes are aliquoted and stored at −70° C. C. Radioligand Binding Assay:
In wells of a 96-well format microtiter plate, is added 90, 110 or 130 μL (to make up a final volume of 200 μL) of assay buffer containing 50 mM of Tris-HCl (pH 7.4), […], 1 mg % aprotinin, 1 mg % leupeptin, 2 mg % 1,10-phenanthroline, 10 mg % trypsin inhibitor, and 0.1 mM PMSF. The inhibitors are added on the day of the experiment. […]

| inhibition at 0.1 µM [1] | melting point | SMILES |
| --- | --- | --- |
| 43% | 118 °C | CC1(C)CCCC=C1c1ccc(C(=O)N2Cc3cccn3Cc3ccccc32)cc1 [Example 17, (10,11-Dihydro-5H-pyrrolo[2,1-c][1,4]benzodiazepin-10-yl)-[4-(6,6-dimethyl-cyclohex-1-en-1-yl)-phenyl]-methanone] |
| 61% | 166 °C | O=C(c1ccc(C2=CCCc3ccccc32)cc1)N1Cc2cccn2Cc2ccccc21 [Example 18, (10,11-Dihydro-5H-pyrrolo[2,1-c][1,4]benzodiazepin-10-yl)-[4-(3,4-dihydro-naphthalen-1-yl)-phenyl]-methanone] |
| 5% | 153 to 154 °C | CC1=C(c2ccc(C(=O)N3Cc4cccn4Cc4ccccc43)cc2)C(C)CCC1 (stereo not shown) [Example 19, (10,11-Dihydro-5H-pyrrolo[2,1-c][1,4]benzodiazepin-10-yl)-[4-(2,6-dimethyl-cyclohex-1-en-1-yl)-phenyl]-methanone] |
| 17% | 118 to 119 °C | CC1(C)C2CC=C(c3ccc(C(=O)N4Cc5cccn5Cc5ccccc54)cc3)C1C2 (stereo not shown) [Example 22, (10,11-Dihydro-5H-pyrrolo[2,1-c][1,4]benzodiazepin-10-yl)-[4-(6,6-dimethyl-bicyclo[3.1.1]hept-2-en-2-yl)-phenyl]-methanone] |
| 18% | 142 to 143 °C | CC1(C)C=C(c2ccc(C(=O)N3Cc4cccn4Cc4ccccc43)cc2)CC(C)(C)C1 [Example 23, (10,11-Dihydro-5H-pyrrolo[2,1-c][1,4]benzodiazepin-10-yl)-[4-(3,3,5,5-tetramethyl-cyclohex-1-en-1-yl)-phenyl]-methanone] |
| 29% | 205 to 207 °C | O=C1C=C(c2ccc(C(=O)N3Cc4cccn4Cc4ccccc43)cc2)CCC1 [Example 24, 3-[4-(10,11-Dihydro-5H-pyrrolo[2,1-c][1,4]benzodiazepine-10-carbonyl)-phenyl]-cyclohex-2-en-1-one] |
| 58% | 95 to 97 °C | CC1=C(c2ccc(C(=O)N3Cc4cccn4Cc4ccccc43)cc2)CCCC1=O [Example 26, 3-[4-(10,11-Dihydro-5H-pyrrolo[2,1-c][1,4]benzodiazepine-10-carbonyl)-phenyl]-2-methyl-cyclohex-2-en-1-one] |
| 13% | 132 to 133 °C | Cc1cc(C(=O)N2Cc3cccn3Cc3ccccc32)ccc1C1=CCCCC1C (stereo not shown) [Example 29, (10,11-Dihydro-5H-pyrrolo[2,1-c][1,4]benzodiazepin-10-yl)-[3-methyl-4-(6-methyl-cyclohex-1-en-1-yl)-phenyl]-methanone] |
| 13% | 131 °C | Cc1cc(C(=O)N2Cc3cccn3Cc3ccccc32)ccc1C1=CCCCC1(C)C [Example 30, (10,11-Dihydro-5H-pyrrolo[2,1-c][1,4]benzodiazepin-10-yl)-[4-(6,6-dimethyl-cyclohex-1-en-1-yl)-3-methyl-phenyl]-methanone] |
| 0% | 133 to 135 °C | CC1=C(c2ccc(C(=O)N3Cc4cccn4Cc4ccccc43)cc2C)C(C)CCC1 (stereo not shown) [Example 33, (10,11-Dihydro-5H-pyrrolo[2,1-c][1,4]benzodiazepin-10-yl)-[4-(2,6-dimethyl-cyclohex-1-en-1-yl)-3-methyl-phenyl]-methanone] |
| 4% | 127 to 129 °C | Cc1cc(C(=O)N2Cc3cccn3Cc3ccccc32)ccc1C1=CCCCC1C(C)(C)C (stereo not shown) [Example 34, (10,11-Dihydro-5H-pyrrolo[2,1-c][1,4]benzodiazepin-10-yl)-[4-(6-tert-butyl-cyclohex-1-en-1-yl)-3-methyl-phenyl]-methanone] |
| 18% | 168 to 169 °C | Cc1cc(C(=O)N2Cc3cccn3Cc3ccccc32)ccc1C1=CCC2CCC1C2 (stereo not shown) [Example 35, (10,11-Dihydro-5H-pyrrolo[2,1-c][1,4]benzodiazepin-10-yl)-(4-bicyclo[3.2.1]oct-2-en-2-yl-3-methyl-phenyl)-methanone] |
| 3% | 187 °C | Cc1cc(C(=O)N2Cc3cccn3Cc3ccccc32)ccc1C1=CCC2CC1C2(C)C (stereo not shown) [Example 36, (10,11-Dihydro-5H-pyrrolo[2,1-c][1,4]benzodiazepin-10-yl)-[4-(6,6-dimethyl-bicyclo[3.1.1]hept-2-en-2-yl)-3-methyl-phenyl]-methanone] |
| 20% | 158 °C | Cc1cc(C(=O)N2Cc3cccn3Cc3ccccc32)ccc1C1=CC(C)(C)CC(C)(C)C1 [Example 37, (10,11-Dihydro-5H-pyrrolo[2,1-c][1,4]benzodiazepin-10-yl)-[3-methyl-4-(3,3,5,5-tetramethyl-cyclohex-1-en-1-yl)-phenyl]-methanone] |
| -9% | 91 to 94 °C | COc1cccc(C2=C(c3ccc(C(=O)N4Cc5cccn5Cc5ccccc54)cc3C)CCCC2)c1 [Example 38, (10,11-Dihydro-5H-pyrrolo[2,1-c][1,4]benzodiazepin-10-yl)-{4-[2-(3-methoxy-phenyl)-cyclohex-1-en-1-yl]-3-methyl-phenyl}-methanone] |
| 38% | 176 to 177 °C | Cc1cc(C(=O)N2Cc3cccn3Cc3ccccc32)ccc1C1=CC(=O)CCC1 [Example 39, 3-[4-(10,11-Dihydro-5H-pyrrolo[2,1-c][1,4]benzodiazepine-10-carbonyl)-2-methyl-phenyl]-cyclohex-2-en-1-one] |
| 86% | 127 to 128 °C | CO[C@@H]1CCCC(c2ccc(C(=O)N3Cc4cccn4Cc4ccccc43)cc2C)=C1C [Example 44, 10-{4-[(3R)-3-Methoxy-2-methylcyclohex-1-en-1-yl]-3-methylbenzoyl}-10,11-dihydro-5H-pyrrolo[2,1-c][1,4]benzodiazepine] |
